Data: paper PMC8704707 (Pharmaceuticals, 2021)
Values after ≈ are worked out from the molar mass of the structure shown. Like-named read-outs stand apart in the source and are kept apart here.

Experiments:
[1] = tested on: Candida parapsilosis ATCC 22019; assay: microbe, parasite or virus in culture; type: cell-based; conditions: Lodderomyces parapsilosis
[2] = target: AChE from electric eel (EeAChE) (Electrophorus electricus, UniProt O42275); assay: biochemical; type: biochemical
[3] = tested on: Candida tropicalis ATCC 750; assay: microbe, parasite or virus in culture; type: cell-based
[4] = tested on: Candida krusei ATCC 6258; assay: microbe, parasite or virus in culture; type: cell-based; conditions: Pichia kudriavzevii
[5] = tested on: Candida albicans ATCC 24443; assay: microbe, parasite or virus in culture; type: cell-based
[6] = target: BuChE from equine serum (EqBuChE) (Equus caballus, UniProt P81908); assay: biochemical; conditions: read-out: IC50 BuChE
[7] = tested on: four Gram-positive and four Gram-negative bacterial strains; assay: Antibacterial microdilution broth method, whole panel; type: cell-based; conditions: read-out: MIC, all bacterial strains tested
[8] = tested on: Trichophyton interdigitale ATCC 9533; assay: microbe, parasite or virus in culture; type: cell-based
[9] = tested on: eight human pathogenic fungi; assay: Antifungal microdilution broth method, whole panel; type: cell-based; conditions: not reported in Table 2, read-out: MIC, all fungal strains tested
[10] = tested on: Acinetobacter baumannii ATCC 19606; assay: Antibacterial microdilution broth method (EUCAST); type: cell-based
[11] = tested on: Staphylococcus aureus ATCC 29213; assay: Antibacterial microdilution broth method (EUCAST); type: cell-based
[12] = tested on: Escherichia coli ATCC 25922; assay: Antibacterial microdilution broth method (EUCAST); type: cell-based
[13] = tested on: Klebsiella pneumoniae ATCC 10031; conditions: for MIC KP 24 h: 24 h incubation; for MIC KP 48 h: 48 h incubation
[14] = tested on: methicillin-resistant Staphylococcus aureus ATCC 43300; assay: Antibacterial microdilution broth method (EUCAST); type: cell-based; conditions: ATCC 43300 / MRSA
[15] = tested on: Staphylococcus epidermidis ATCC 12228; assay: Antibacterial microdilution broth method (EUCAST); type: cell-based
[16] = tested on: Pseudomonas aeruginosa ATCC 27853; assay: Antibacterial microdilution broth method (EUCAST); type: cell-based
[17] = tested on: Enterococcus faecalis ATCC 29212; assay: Antibacterial microdilution broth method (EUCAST); type: cell-based
[18] = tested on: HepG2 cells
Description: Cytotoxicity of the tested compounds was measured using the standard hepatic cell line HepG2. The used CellTiter 96® assay is based on the reduction of tetrazolium dye (MTS) in living cells to formazan, which is then determined colorimetrically.

[19] = ATCC22019, 24 h, read-out: MIC CP 24 h
[20] = ATCC22019, 48 h, read-out: MIC CP 48 h
[21] = mean ± SD, n = three independent experiments, ATCh 40 µM, read-out: IC50 AChE
[22] = ATCC750, 24 h, read-out: MIC CT 24 h
[23] = ATCC750, 48 h, read-out: MIC CT 48 h
[24] = ATCC6258, 24 h, read-out: MIC CK 24 h
[25] = ATCC6258, 48 h, read-out: MIC CK 48 h
[26] = ATCC24443, 24 h, read-out: MIC CA 24 h
[27] = ATCC24443, 48 h, read-out: MIC CA 48 h
[28] = mean ± SD, n = three independent experiments, BTCh 40 µM
[29] = ATCC9533, 72 h, read-out: MIC TI 72 h
[30] = ATCC9533, 120 h, read-out: MIC TI 120 h
[31] = ATCC19606, 24 h, read-out: MIC ACI 24 h
[32] = ATCC19606, 48 h, read-out: MIC ACI 48 h
[33] = ATCC29213, 24 h, read-out: MIC SA 24 h
[34] = ATCC29213, 48 h, read-out: MIC SA 48 h
[35] = ATCC25922, 24 h, read-out: MIC EC 24 h
[36] = ATCC25922, 48 h, read-out: MIC EC 48 h
[37] = ATCC12228, 24 h, read-out: MIC SE 24 h
[38] = ATCC12228, 48 h, read-out: MIC SE 48 h
[39] = ATCC27853, 24 h, read-out: MIC PA 24 h
[40] = ATCC27853, 48 h, read-out: MIC PA 48 h
[41] = ATCC29212, 24 h, read-out: MIC EF 24 h
[42] = ATCC29212, 48 h, read-out: MIC EF 48 h

BuChE from equine serum (EqBuChE), sequence (P81908 whole entry): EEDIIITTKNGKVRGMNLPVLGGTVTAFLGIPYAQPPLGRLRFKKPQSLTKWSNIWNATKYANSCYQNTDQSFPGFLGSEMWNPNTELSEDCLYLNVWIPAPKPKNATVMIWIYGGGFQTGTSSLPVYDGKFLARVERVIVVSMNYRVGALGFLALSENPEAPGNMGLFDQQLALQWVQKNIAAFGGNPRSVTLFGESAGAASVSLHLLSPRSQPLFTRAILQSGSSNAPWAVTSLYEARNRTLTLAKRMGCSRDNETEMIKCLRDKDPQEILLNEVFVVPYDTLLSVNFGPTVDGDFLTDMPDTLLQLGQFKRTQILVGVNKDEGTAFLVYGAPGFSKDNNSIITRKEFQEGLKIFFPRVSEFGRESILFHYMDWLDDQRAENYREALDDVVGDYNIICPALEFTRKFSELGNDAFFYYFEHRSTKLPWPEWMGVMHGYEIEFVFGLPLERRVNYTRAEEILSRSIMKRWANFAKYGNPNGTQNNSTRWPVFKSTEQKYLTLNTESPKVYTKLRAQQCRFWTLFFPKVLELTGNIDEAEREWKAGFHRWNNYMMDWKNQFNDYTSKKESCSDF
AChE from electric eel (EeAChE), sequence (O42275 24-633): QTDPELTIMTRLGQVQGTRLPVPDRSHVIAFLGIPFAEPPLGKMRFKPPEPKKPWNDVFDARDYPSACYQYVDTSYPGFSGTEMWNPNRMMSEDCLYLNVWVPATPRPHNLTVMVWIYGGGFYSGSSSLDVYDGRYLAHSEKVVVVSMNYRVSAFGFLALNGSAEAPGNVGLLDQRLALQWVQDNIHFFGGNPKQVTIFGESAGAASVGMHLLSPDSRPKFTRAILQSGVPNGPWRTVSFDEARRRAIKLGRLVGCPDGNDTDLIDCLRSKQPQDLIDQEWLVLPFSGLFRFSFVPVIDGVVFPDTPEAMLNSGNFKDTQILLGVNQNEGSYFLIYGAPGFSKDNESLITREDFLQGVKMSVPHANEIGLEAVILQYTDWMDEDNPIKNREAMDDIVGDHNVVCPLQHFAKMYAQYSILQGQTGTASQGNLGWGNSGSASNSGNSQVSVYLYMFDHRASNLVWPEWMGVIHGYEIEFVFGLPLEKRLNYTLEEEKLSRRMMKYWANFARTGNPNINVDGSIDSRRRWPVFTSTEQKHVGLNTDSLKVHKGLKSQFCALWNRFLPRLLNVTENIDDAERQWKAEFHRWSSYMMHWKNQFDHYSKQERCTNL

Compound: N=C(N)NNCc1cc(I)cc(I)c1O [Compound 2d, 2-(2-Hydroxy-3,5-diiodobenzyl)hydrazine-1-carboximidamide]
- MIC [1, 19]: > 125 µM
- MIC [1, 20]: > 125 µM
- Selectivity AChE/BuChE [2]: 1.10
- IC50 [2, 21]: 45.7 ± 1.7 µM
- MIC [3, 22]: > 125 µM
- MIC [3, 23]: > 125 µM
- MIC [4, 24]: > 125 µM
- MIC [4, 25]: > 125 µM
- MIC [5, 26]: > 125 µM
- MIC [5, 27]: > 125 µM
- IC50 [6, 28]: 41.5 ± 1.45 µM
- MIC [7]: ≥ 500 µM
- MIC [8, 29]: 62.5 µM (≈ 27 µg/mL)
- MIC [8, 30]: 62.5 µM (≈ 27 µg/mL)

Compound: [H]/N=C(\NN=Cc1cc(I)cc(I)c1O)N[N+](=O)[O-] [Compound 2f, (E)-2-(2-Hydroxy-3,5-diiodobenzylidene)-N-nitrohydrazine-1-carboximidamide]
- IC50 [2, 21]: 34.78 ± 0.04 µM
- IC50 [6, 28]: > 500 µM
- MIC [7]: ≥ 500 µM
- MIC [9]: ≥ 500 µM

Compound: N=C(N/N=C/c1cc(I)cc(I)c1O)N/N=C/c1cc(I)cc(I)c1O [Compound 2g, Bis[2-((E)-2-hydroxy-3,5-diiodobenzylidene)hydrazineyl]methaniminium chloride]
- MIC [1, 19]: > 500 µM
- MIC [1, 20]: > 500 µM
- IC50 [2]: 54.9 ± 1.72 µM
- MIC [3, 22]: > 500 µM
- MIC [3, 23]: > 500 µM
- MIC [4, 24]: > 500 µM
- MIC [4, 25]: > 500 µM
- MIC [5, 26]: > 500 µM
- MIC [5, 27]: > 500 µM
- IC50 [6]: 8.26 ± 0.21 µM
- MIC [7]: ≥ 500 µM
- MIC [8, 29]: 250 µM
- MIC [8, 30]: 250 µM

Compound: NC(=O)N/N=C/c1cc(I)cc(I)c1O [Compound 2h, (E)-2-(2-Hydroxy-3,5-diiodobenzylidene)hydrazine-1-carboxamide]
- MIC [10, 31]: > 500 µM
- MIC [10, 32]: > 500 µM
- MIC [11, 33]: 250 µM (≈ 108 µg/mL)
- MIC [11, 34]: 250 µM (≈ 108 µg/mL)
- Selectivity AChE/BuChE [2]: 0.88
- IC50 [2, 21]: 30.7 ± 0.33 µM
- MIC [12, 35]: > 500 µM
- MIC [12, 36]: > 500 µM
- MIC KP 24 h [13]: >500 µM
- MIC KP 48 h [13]: >500 µM
- MIC ([14]; 24 h, read-out: MIC MRSA 24 h): 500 µM (≈ 215 µg/mL)
- MIC ([14]; 48 h, read-out: MIC MRSA 48 h): 500 µM (≈ 215 µg/mL)
- MIC [15, 37]: 125 µM (≈ 53.9 µg/mL)
- MIC [15, 38]: 125 µM (≈ 53.9 µg/mL)
- MIC [16, 39]: > 500 µM
- MIC [16, 40]: > 500 µM
- MIC [17, 41]: > 500 µM
- MIC [17, 42]: > 500 µM
- IC50 [6, 28]: 34.7 ± 0.35 µM
- MIC [9]: ≥ 500 µM

Compound: NC(=S)N/N=C/c1cc(I)cc(I)c1O [Compound 2i, (E)-2-(2-Hydroxy-3,5-diiodobenzylidene)hydrazine-1-carbothioamide]
- MIC [10, 31]: > 500 µM
- MIC [10, 32]: > 500 µM
- MIC [11, 33]: 500 µM (≈ 224 µg/mL)
- MIC [11, 34]: 500 µM (≈ 224 µg/mL)
- Selectivity AChE/BuChE [2]: 0.61
- IC50 [2, 21]: 52.22 ± 0.4 µM
- MIC [12, 35]: > 500 µM
- MIC [12, 36]: > 500 µM
- MIC KP 24 h [13]: >500 µM
- MIC KP 48 h [13]: >500 µM
- MIC ([14]; 24 h, read-out: MIC MRSA 24 h): 500 µM (≈ 224 µg/mL)
- MIC ([14]; 48 h, read-out: MIC MRSA 48 h): 500 µM (≈ 224 µg/mL)
- MIC [15, 37]: 250 µM (≈ 112 µg/mL)
- MIC [15, 38]: 250 µM (≈ 112 µg/mL)
- MIC [16, 39]: > 500 µM
- MIC [16, 40]: > 500 µM
- MIC [17, 41]: 250 µM (≈ 112 µg/mL)
- MIC [17, 42]: 250 µM (≈ 112 µg/mL)
- IC50 [6, 28]: 86.24 ± 0.39 µM
- MIC [9]: ≥ 500 µM

Compound: N=C(N)NN [aminoguanidine, hydrazinecarboximidamide, reference compound]
- Selectivity AChE/BuChE [2]: 0.23
- IC50 ([2]; read-out: IC50 AChE): 75.14 ± 0.74 µM
- IC50 [6]: 327 ± 18 µM
- Cytotoxicity in HepG2 in words [18]: no significant cytotoxicity

Compound: NNC(N)=O [semicarbazide, reference compound]
- Selectivity AChE/BuChE [2]: 0.13
- IC50 ([2]; read-out: IC50 AChE): 48.1 ± 0.84 µM
- IC50 [6]: 365 ± 16.8 µM
- Cytotoxicity in HepG2 in words [18]: no significant cytotoxicity

Compound: NNC(N)=S [thiosemicarbazide, reference compound]
- Selectivity AChE/BuChE [2]: 0.14
- IC50 ([2]; read-out: IC50 AChE): 46.1 ± 1.1 µM
- IC50 [6]: 327.8 ± 3.22 µM
- Cytotoxicity in HepG2 in words [18]: no significant cytotoxicity
